From patent US12617777B2, “GPR84 antagonists and uses thereof” (Liminal BioSciences Limited, priority 2021, dated 2026)

Molecular target: T1, human GPR84 receptor (Homo sapiens, UniProt Q9NQS5)
T1 construct: host or cells: HEK293, transient transfection
Assay: Gαi biosensor BRET assay in HEK293 cells (antagonism of ZQ-16)
Type: cell-based
Details: for inhibition at 10 µM: HEK293, single concentration 10 μM (designated F); for IC50: HEK293 cells, antagonism of 200 nmol/L ZQ-16; for inhibition at 25 µM: HEK293, single concentration 25 μM (designated I); for inhibition at 2 µM: HEK293, single concentration 2 μM (designated A)
From the text: Background—The following assays can be used for determination of GPR84 activation in living HEK293 cells. The Gai BRET biosensor (Gagnon et al., 2018; Gales et al., 2006. Nat StructMol Biol. 13, 778-86; Saulieres et al., 2012. Nat Chem Biol. 8, 622-30) allows to directly monitor GPR84-mediated activation of Gai. The Gai biosensor consists of a Rluc8-tagged Gαi2 subunit, a GFP10-tagged Gγ2 subunit, and an untagged Gβ1. Agonist stimulation and GPR84 activation triggers a physical separation between the RLuc8-Gαi donor and the GFP10-Gγ2 acceptor, resulting in a decrease in BRET signal whose amplitude is correlated to ligand efficacy (Gales et al., 2006). Moreover, signaling functions of GPCRs are tightly regulated by endocytosis, the targeting of receptors to endosomes and their sorting to lysosomes or recycling to the plasma membrane. The early endosomes (EEs) trafficking assay (Namkung et al., 2016. Nat Commun. 7, 12178) uses Rluc8-tagged GPR84 and Renilla GFP (rGFP) attached to the FYVE domain from human endofin/zinc finger FYVE domain-containing protein 16, which binds phosphatidylinositol 3-phosphate in EEs. Agonist stimulation of GPR84-Rluc8 leads to trafficking of the receptor to EEs, and ensuing increase of the donor concentration relative to the rGFP-FYVE acceptor anchored in the same cellular compartment, and thus results in an increase in BRET signal.
Plasmids—The cDNA clones for human GPR84 receptor, human Gai2, Gp1, and Gy2 were obtained from the cDNA Resource Center (www.cdna.org). GFP10 (F64L, S147P, S202F and H231L variant of Aequorea victoria Green Fluorescent Protein) gBlocks gene fragments (Integrated DNA Technologies, IA) and linker were inserted in frame at the N-terminus of human Gγ2. Rluc8 (A55T, C124A, S130A, K136R, A143M, M185V, M253L, and S287L variant of the Renilla renformis luciferase) gBlocks gene fragment was inserted with linkers in frame in between residues 91 and 92 of Gai2 or at the C-terminus of GPR84. The FYVE domain from human endofin (residues Q739 to K806) attached in frame at the C terminus of a humanized Renilla GFP (rGFP), were synthesized as gBlocks gene fragments.
Bioluminescence Resonance Energy Transfer (BRET) Measurement—HEK293 cells were transfected with GPR84-Rluc8 and rGFP-FYVE for the EEs trafficking biosensor or with GPR84, Gαi2-Rluc8, GFP10-Gγ2, and Gβ1 for the Gαi biosensor. The following day, transiently transfected cells were seeded in 96-well white clear bottom microplates coated with poly-D-lysine and left in culture for 24 hours. Cells were washed once with Tyrode's buffer (140 mmol/L NaCl, 1 mmol/L CaCl2, 2.7 mmol/L KCl, 0.49 mmol/L MgCl2, 0.37 mmol/L NaH2PO4, 5.6 mmol/L glucose, 12 mmol/L NaHCO3, and 25 mmol/L HEPES, pH 7.5) before performing assays in Tyrode's buffer. Test compounds were incubated with cells for 5 (Gαi) or 15 (EEs) minutes at 37° C. before addition of 200 nmol/L of the GPR84 agonist ZQ-16 (2-(Hexylthio)-6-hydroxy-4(3H)-pyrimidinone) for 5 minutes at room temperature (Gαi) or 30 minutes at 37° C. (EEs). The Rluc8 substrate coelenterazine 400A (Prolume, Lakeside, AZ) was added at a final concentration of 5 μmol/L and BRET readings were collected using an Infinite M1000 microplate reader (Tecan, Morrisville, NC). BRET^2 readings between Rluc8 and GFP10 or rGFP were collected by sequential integration of the signals detected in the 370 to 450 nm (Rluc8) and 510 to 540 nm (GFP10, rGFP) windows. The BRET signal was calculated as the ratio of light emitted by acceptor (GFP10, rGFP) over the light emitted by donor (Rluc8). The values were corrected to net BRET by subtracting the background BRET signal obtained in cells transfected with Rluc8 constructs alone. Ligand-promoted net BRET values were calculated by subtracting vehicle-induced net BRET from ligand-induced net BRET.

T1 sequence (Q9NQS5 whole entry): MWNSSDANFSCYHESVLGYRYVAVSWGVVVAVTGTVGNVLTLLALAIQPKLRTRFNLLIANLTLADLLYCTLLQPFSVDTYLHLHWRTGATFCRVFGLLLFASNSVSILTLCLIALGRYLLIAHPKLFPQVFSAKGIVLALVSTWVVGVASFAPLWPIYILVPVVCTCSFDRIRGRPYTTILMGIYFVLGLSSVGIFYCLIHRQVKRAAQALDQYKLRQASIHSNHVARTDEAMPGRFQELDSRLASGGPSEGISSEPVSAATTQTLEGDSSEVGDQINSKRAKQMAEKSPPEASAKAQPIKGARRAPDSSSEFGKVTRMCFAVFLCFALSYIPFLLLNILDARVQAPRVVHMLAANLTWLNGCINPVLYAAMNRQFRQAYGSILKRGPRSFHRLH

| inhibition at 10 µM | Structure (SMILES) | other results |
| --- | --- | --- |
| > 75% | Cc1ccc(C#CC2CC2)cc1Sc1cn(CC2OCC(C)(C)CO2)nn1 [Compound I-781, 4-((5-(cyclopropylethynyl)-2-methylphenyl)thio)-1-((5,5-dimethyl-1,3-dioxan-2-yl)methyl)-1H-1,2,3-triazole] | – |
| 25 to 50% | C=C(c1cncc(C#CC2CC2)c1)c1cn(CC2CCCCO2)nn1 (stereo not drawn) [Compound I-427] | IC50: > 3 µM |
| – | Cc1c(C#CC2CC2)cccc1-c1cn(CC2CCCCO2)nn1 (stereo not drawn) [Compound I-80] | inhibition at 25 µM: ≤ 25% |
| > 75% | CN(C)c1cc(N2CC(C)(CO)C2)ccc1-c1cn(CC2OCC3(CCC3)O2)nn1 (stereo not drawn) [Compound I-728] | – |
| ≤ 25% | CCc1cc(C#CC2CC2)ccc1-c1cn(CC2CCCCO2)nn1 (stereo not drawn) [Compound I-865] | IC50: 0.3 to 1 µM |
| – | CN(C)c1cc(N2CC(C)(CO)C2)c(F)cc1-c1cn(CC2OCC(C)(C)CO2)nn1 [Compound I-711] | inhibition at 2 µM: > 75%; IC50: ≤ 0.3 µM |
| 50 to 75% | Cc1cc(N2CCC(CO)CC2)ccc1-c1cn(CC2CCCCO2)nn1 (stereo not drawn) [Compound I-445] | – |
| 50 to 75% | Cc1cc(N2CC3(CCN(Cc4ccccc4)CC3)C2)ccc1-c1cn(CC2CCCCO2)nn1 (stereo not drawn) [Compound I-156] | – |
| – | Cc1nn(CC2CCCCO2)cc1-c1ccc(C#CC2CC2)cc1 (stereo not drawn) [Compound I-319] | inhibition at 25 µM: ≤ 25% |
| ≤ 25% | COC(=O)N1CCOCC1Cn1cc(-c2ccc(C#CC3CC3)cc2C)nn1 (stereo not drawn) [Compound I-106] | – |
| 50 to 75% | C(#CC1CC1)c1cccc(Cc2cn(CC3CCCCO3)nn2)c1 (stereo not drawn) [Compound I-301] | – |
| – | CC1(C)COC(Cn2cnc(-c3ncc(C#CC4CC4)cc3OC3CC3)c2)OC1 [Compound I-831] | inhibition at 2 µM: > 75%; IC50: ≤ 0.3 µM |
| > 75% | CN(C)c1cc(N2CC3(COC3)C2)c(F)cc1-c1cn(CC2OCC(C)(C)CO2)nn1 [Compound I-849] | – |
| ≤ 25% | COCCn1cc(-c2ccc(C#CC3CC3)cc2)nn1 [Compound I-103] | – |
| > 75% | COCC#Cc1ccc(-c2cn(CC3OCC(C)(C)CO3)nn2)c(N(C)C)c1 [Compound I-829] | IC50: ≤ 0.3 µM |
| > 75% | Cc1cc(C#CCN)cnc1-c1cn(CC2CCCCO2)nn1 (stereo not drawn) [Compound I-826, 3-(5-methyl-6-(1-((tetrahydro-2H-pyran-2-yl)methyl)-1H-1,2,3-triazol-4-yl)pyridin-3-yl)prop-2-yn-1-amine] | – |
| ≤ 25% | Cc1cc(C#CC2CC2)ccc1-c1nn(C[C@H]2CCCCO2)nc1C [Compound I-345] | – |
| – | Cc1cc(C#CC2CC2)ccc1-n1cc(CN2CCCCC2)nn1 [Compound I-296] | inhibition at 25 µM: ≤ 25% |
| 50 to 75% | Cc1ccccc1-c1cn(CC#Cc2ccc(-c3cn(CC4CCCCO4)nn3)c(C)c2)nn1 (stereo not drawn) [Compound I-488] | IC50: ≤ 0.3 µM |
| 25 to 50% | Cc1cc(N2CCN(Cc3nccn3C)CC2)ccc1-c1cn(CC2CCCCO2)nn1 (stereo not drawn) [Compound I-580] | – |
| ≤ 25% | Cc1cc(C#CC2CC2)ccc1-c1cn(CC2CCCCN2)nn1 (stereo not drawn) [Compound I-126] | – |
| – | Cc1ccc(-c2ccc(-c3cn(C[C@H]4COCCO4)nn3)cc2)cn1 [Compound I-25] | inhibition at 12.5 µM (HEK293, single concentration 12.5 μM (designated G)): ≤ 25% |
| 50 to 75% | Cc1cc(C#CCN2CCC(F)(F)CC2)cnc1-c1cn(CC2CCCCO2)nn1 (stereo not drawn) [Compound I-250] | – |
| ≤ 25% | Cc1cc(C#CC2CC2)ccc1-c1nnn(CC2CCCCO2)n1 (stereo not drawn) [Compound I-9] | – |
| – | C(#CC1CC1)c1ccc(-c2cn(CC3CCCCO3)nn2)cn1 (stereo not drawn) [Compound I-35] | inhibition at 25 µM: ≤ 25% |
| 25 to 50% | CC(=O)NC(C)(C)COc1ccc(-c2cn(CC3CCCCO3)nn2)c(C)c1 (stereo not drawn) [Compound I-265] | – |
| 50 to 75% | CCc1cc(C#CCN2CC(C)(CO)C2)cnc1-c1cn(CC2OCC(C)(C)CO2)nn1 [Compound I-789] | IC50: 0.3 to 1 µM |
| – | CC(=O)c1ccc(C)c(N(C)c2cn(CC3OCC(C)(C)CO3)nn2)c1 [Compound I-825] | inhibition at 2 µM: > 75% |
| – | Cc1cc(CN2CCOCC2)ccc1-c1cn(CC2CCCCO2)nn1 (stereo not drawn) [Compound I-74] | inhibition at 25 µM: 25 to 50% |
